Data as given in PubChem BioAssay AID1963446 (Molecular Pharmacology Branch, DTP, NCI, 2024).

Test system: 993429-296-R-J1-PDC complex spheroid growth, percent test/control
Assay: Anticancer human tumor 993429-296-R-J1-PDC patient-derived uterine sarcoma cell line growth inhibition [Asc]
Conditions: for IC50: curve of first compound; for viability, T/C: stronger effect = lower value
How it was run: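 Complex solid-tumor spheroids incorporating human endothelial and mesenchymal stem cells received single agents or combinations over half-log dilution ranges anchored to clinical Cmax.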
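Also: spheroids exposed to compounds for seven days.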

CCN1C(C(=O)NC23CCC(C(=O)O)(CC2)CC3)C(c2cccc(Cl)c2F)C2(C(=O)Nc3cc(Cl)ccc32)C12CCCCC2 (stereo not given) + Cc1c(S(C)(=O)=O)c(-c2cc(F)cc(N3CCN(c4ccc(NS(=O)(=O)c5ccc(NC(CCN6CCC(C(=O)OCCCP(=O)(O)O)CC6)CSc6ccccc6)c(S(=O)(=O)C(F)(F)F)c5)cc4)CC3)c2)c(-c2ccc(Cl)cc2)n1C(C)C
IC50 (second compound 0.1 µM): > 3000 nM
IC50 (second compound 0.316 µM): 1270 nM
IC50 (second compound 1 µM): 951 nM
IC50 (second compound 3.16 µM): < 9.49 nM
IC50 (second compound 10 µM): > 3000 nM
viability, T/C (second compound 0.1 µM, first compound 0.00949 µM): 88.1%
viability, T/C (second compound 0.1 µM, first compound 0.03 µM): 76.6%
viability, T/C (second compound 0.1 µM, first compound 0.0949 µM): 94.8%
viability, T/C (second compound 0.1 µM, first compound 0.3 µM): 66.4%
viability, T/C (second compound 0.1 µM, first compound 0.949 µM): 62.8%
viability, T/C (second compound 0.1 µM, first compound 3 µM): 58.5%
viability, T/C (second compound 0.316 µM, first compound 0.00949 µM): 63.1%
viability, T/C (second compound 0.316 µM, first compound 0.03 µM): 68.6%
viability, T/C (second compound 0.316 µM, first compound 0.0949 µM): 68.4%
viability, T/C (second compound 0.316 µM, first compound 0.3 µM): 55.5%
viability, T/C (second compound 0.316 µM, first compound 0.949 µM): 54.8%
viability, T/C (second compound 0.316 µM, first compound 3 µM): 39.9%
viability, T/C (second compound 1 µM, first compound 0.00949 µM): 57.6%
viability, T/C (second compound 1 µM, first compound 0.03 µM): 50.8%
viability, T/C (second compound 1 µM, first compound 0.0949 µM): 50.7%
viability, T/C (second compound 1 µM, first compound 0.3 µM): 61.4%
viability, T/C (second compound 1 µM, first compound 0.949 µM): 48%
viability, T/C (second compound 1 µM, first compound 3 µM): 28.4%
viability, T/C (second compound 3.16 µM, first compound 0.00949 µM): 47.1%
viability, T/C (second compound 3.16 µM, first compound 0.03 µM): 51.9%
viability, T/C (second compound 3.16 µM, first compound 0.0949 µM): 43.1%
viability, T/C (second compound 3.16 µM, first compound 0.3 µM): 44.4%
viability, T/C (second compound 3.16 µM, first compound 0.949 µM): 30.8%
viability, T/C (second compound 3.16 µM, first compound 3 µM): 22.3%
viability, T/C (second compound 10 µM, first compound 0.00949 µM): 81.3%
viability, T/C (second compound 10 µM, first compound 0.03 µM): 91.9%
viability, T/C (second compound 10 µM, first compound 0.0949 µM): 62.4%
viability, T/C (second compound 10 µM, first compound 0.3 µM): 67.7%
viability, T/C (second compound 10 µM, first compound 0.949 µM): 78.2%
viability, T/C (second compound 10 µM, first compound 3 µM): 51.1%
